Biological target: T1, recombinant human SAE enzyme (Homo sapiens, UniProt Q9UBT2)
T1 sequence (Q9UBT2 1-640): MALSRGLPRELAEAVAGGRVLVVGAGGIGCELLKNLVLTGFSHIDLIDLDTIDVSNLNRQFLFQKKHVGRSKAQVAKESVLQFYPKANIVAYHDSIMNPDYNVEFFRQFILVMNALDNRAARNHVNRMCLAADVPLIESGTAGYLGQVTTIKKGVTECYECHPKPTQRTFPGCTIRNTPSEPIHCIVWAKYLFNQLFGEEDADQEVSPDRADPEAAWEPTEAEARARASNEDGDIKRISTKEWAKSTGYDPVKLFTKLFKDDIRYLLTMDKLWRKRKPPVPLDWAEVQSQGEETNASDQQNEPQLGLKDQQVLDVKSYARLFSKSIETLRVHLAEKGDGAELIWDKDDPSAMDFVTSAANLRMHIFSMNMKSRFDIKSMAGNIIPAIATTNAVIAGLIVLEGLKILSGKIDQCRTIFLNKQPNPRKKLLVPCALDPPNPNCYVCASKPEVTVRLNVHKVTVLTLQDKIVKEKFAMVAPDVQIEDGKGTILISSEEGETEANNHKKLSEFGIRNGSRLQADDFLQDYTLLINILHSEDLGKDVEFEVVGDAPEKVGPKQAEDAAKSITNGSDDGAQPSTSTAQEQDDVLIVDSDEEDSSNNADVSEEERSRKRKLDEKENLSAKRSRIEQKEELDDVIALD
T1 sequence (Q9UBE0 1-346 partner): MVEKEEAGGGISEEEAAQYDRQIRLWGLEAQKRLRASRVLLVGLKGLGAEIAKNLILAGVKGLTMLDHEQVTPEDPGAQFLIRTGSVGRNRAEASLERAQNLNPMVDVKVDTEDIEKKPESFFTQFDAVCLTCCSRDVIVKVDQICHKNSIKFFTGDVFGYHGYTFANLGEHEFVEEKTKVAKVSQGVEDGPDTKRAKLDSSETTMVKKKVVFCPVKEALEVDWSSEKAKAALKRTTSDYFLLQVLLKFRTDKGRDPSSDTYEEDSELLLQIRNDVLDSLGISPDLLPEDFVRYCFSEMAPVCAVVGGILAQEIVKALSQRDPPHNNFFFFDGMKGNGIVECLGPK
Assay: SAE HTRF Enzyme Assay
Format: biochemical
Conditions: for IC50: class symbols A-C; for inhibition at 0.111 µM / Percent Inhibition: compound concentration 0.111 μM; for inhibition at 0.111 µM: read-out: Percent Inhibition
Procedure: The SAE enzymatic reaction totals 50 μl and contains 50 mM HEPES Hemisodium (pH 7.5), 0.05% BSA, 5 mM MgCl2, 0.5 μM ATP, 250 μM GSH, 0.01 μM Ubc9-GST, 0.125 μM Sumo-Flag and 0.11 nM recombinant human SAE enzyme. The enzymatic reaction mixture with and without inhibitor, Is incubated at 24° C. for 105 min in a 384-well plate before termination with […] of Stop/Detection buffer (0.1M HEPES Hemisodium pH 7.5, 0.05% Tween20, 20 mM EDTA, 410 mM KF, 0.53 nM Europium-Cryptate labeled monoclonal anti-Flag M2 Antibody (CisBio International) and 8.125 μg/ml PHYCOLINK goat anti-GST allophycocyanin (XL-APC) antibody (Prozyme)). After incubation for 2 hours at 24° C., quantification of FRET is performed on the Pherostar™ (BMG Labtech). Percentage inhibition values at a single concentration or enzyme inhibition (IC50) values are determined from those curves. One skilled in the art will appreciate that the values generated either as percentage inhibition at a single concentration or IC50 values are subject to experimental variation.

SMILES | IC50 | inhibition at 0.111 µM | Percent Inhibition | Percent Inhibition (0.111 µM)
Cc1cc(C(=O)c2cncnc2N[C@@H]2C[C@H](COS(N)(=O)=O)[C@@H](O)[C@H]2O)nn1Cc1ccccc1 [Compound I-31, [(1R,2R,3S,4R)-4-({5-[(1-benzyl-5-methyl-1H-pyrazol-3-yl)carbonyl]pyrimidin-4-yl}amino)-2,3-dihydroxycyclopentyl]methyl sulfamate] | < 10 nM | 94% | – | –
C/C=C/Cn1ccc(C(=O)c2cncnc2N[C@@H]2C[C@H](COS(N)(=O)=O)[C@@H](O)C2)n1 [Compound I-107, [(1R,2S,4R)-4-{[5-({1-[(2E)-but-2-en-1-yl]-1H-pyrazol-3-yl}carbonyl)pyrimidin-4-yl]amino}-2-hydroxycyclopentyl]methyl sulfamate] | 10 to 100 nM | 70% | – | –
Cc1ccc(Cn2ccc(C(=O)c3cncnc3N[C@@H]3C[C@H](COS(N)(=O)=O)[C@@H](O)[C@H]3O)n2)cc1F [Compound I-198, {(1R,2R,3S,4R)-4-[(5-{[1-(3-fluoro-4-methylbenzyl)-1H-pyrazol-3-yl]carbonyl}pyrimidin-4-yl)amino]-2,3-dihydroxycyclopentyl}methyl sulfamate] | < 10 nM | > 99% | – | –
COC(C)c1cc(C(=O)c2cncnc2N[C@@H]2C[C@H](COS(N)(=O)=O)[C@@H](O)C2)nn1Cc1cccc(Br)c1 (single isomer, unassigned) [Compound I-369b, [(1R,2S,4R)-4-{[5-({1-(3-bromobenzyl)-5-[(1S)-1-methoxyethyl]-1H-pyrazol-3-yl}carbonyl)pyrimidin-4-yl]amino}-2-hydroxycyclopentyl]methyl sulfamate or [(1R,2S,4R)-4-{[5-({1-(3-bromobenzyl)-5-[(1R)-1-methoxyethyl]-1H-pyrazol-3-yl}carbonyl)pyrimidin-4-yl]amino}-2-hydroxycyclopentyl]methyl sulfamate] | < 10 nM | – | 98% | –
CC(c1ccccc1)n1ccc(C(=O)c2cncnc2N[C@@H]2C[C@H](COS(N)(=O)=O)[C@@H](O)[C@H]2O)n1 (single isomer, unassigned) [Compound I-361, {(1R,2R,3S,4R)-2,3-dihydroxy-4-[(5-{[1-((1S)-1-phenylethyl)-1H-pyrazol-3-yl]carbonyl}pyrimidin-4-yl)amino]cyclopentyl}methyl sulfamate or {(1R,2R,3S,4R)-2,3-dihydroxy-4-[(5-{[1-((1R)-1-phenylethyl)-1H-pyrazol-3-yl]carbonyl}pyrimidin-4-yl)amino]cyclopentyl}methyl sulfamate] | 10 to 100 nM | – | – | 85%
NS(=O)(=O)OC[C@H]1C[C@@H](Nc2ncncc2C(=O)c2ccn(Cc3cc(Cl)ccn3)n2)[C@H](O)[C@@H]1O [Compound I-70, [(1R,2R,3S,4R)-4-{[5-({1-[(4-chloropyridin-2-yl)methyl]-1H-pyrazol-3-yl}carbonyl)pyrimidin-4-yI]amino}-2,3-dihydroxycyclopentyl]methyl sulfamate] | < 10 nM | 99% | – | –
NS(=O)(=O)OC[C@H]1C[C@@H](Nc2ncncc2C(=O)c2ccn(Cc3cccc(-c4ccccc4)c3)n2)[C@H](O)[C@@H]1O [Compound I-278, {(1R,2R,3S,4R)-4-[(5-{[1-(biphenyl-3-ylmethyl)-1H-pyrazol-3-yl]carbonyl}pyrimidin-4-yl)amino]-2,3-dihydroxycyclopentyl}methyl sulfamate] | < 10 nM | 97% | – | –
NS(=O)(=O)OC[C@H]1C[C@@H](Nc2ncncc2C(=O)c2ccn(CC#CCC3CCCC3)n2)C[C@@H]1O [Compound I-59, {(1R,2S,4R)-4-[(5-{[1-(4-cyclopentylbut-2-yn-1-yl)-1H-pyrazol-3-yl]carbonyl}pyrimidin-4-yl)amino]-2-hydroxycyclopentyl}methyl sulfamate] | 10 to 100 nM | 70% | – | –
NS(=O)(=O)OC[C@H]1C[C@@H](Nc2ncncc2C(=O)c2ccn(S(=O)(=O)c3cccc(Br)c3)c2)C[C@@H]1O [Compound I-255, [(1R,2S,4R)-4-{[5-({1-[(3-bromophenyl)sulfonyl]-1H-pyrrol-3-yl}carbonyl)pyrimidin-4-yl]amino}-2-hydroxycyclopentyl]methyl sulfamate] | < 10 nM | 97% | – | –
NS(=O)(=O)CC[C@H]1C[C@@H](Nc2ncncc2C(=O)c2ccn(Cc3cccc(Br)c3)n2)C[C@@H]1O [Compound I-38, 2-{(1R,2S,4R)-4-[(5-{[1-(3-bromobenzyl)-1H-pyrazol-3-yl]carbonyl}pyrimidin-4-yl)amino]-2-hydroxycyclopentyl}ethanesulfonamide] | 100 to 1000 nM | 51% | – | –
NS(=O)(=O)OC[C@H]1C[C@@H](Nc2ncncc2C(=O)c2ccn(Cc3ccccc3)c2)[C@H](O)[C@@H]1O [Compound I-217, [(1R,2R,3S,4R)-4-({5-[(1-Benzyl-1H-pyrrol-3-yl)carbonyl]pyrimidin-4-yl}amino)-2,3-dihydroxycyclopentyl]methyl sulfamate] | < 10 nM | 98% | – | –
N#Cc1cccc(Cn2ccc(C(=O)c3cncnc3N[C@@H]3C[C@H](COS(N)(=O)=O)[C@@H](O)[C@H]3O)n2)c1 [Compound I-25, {(1R,2R,3S,4R)-4-[(5-{[1-(3-cyanobenzyl)-1H-pyrazol-3-yl]carbonyl}pyrimidin-4-yl)amino]-2,3-dihydroxycyclopentyl}methyl sulfamate] | < 10 nM | 93% | – | –
NS(=O)(=O)OC[C@H]1C[C@@H](Nc2ncncc2C(=O)c2ccn(Cc3ccc(Cl)c(C(F)(F)F)c3)n2)C[C@@H]1O [Compound I-288, [(1R,2S,4R)-4-{[5-({1-[4-chloro-3-(trifluoromethyl)benzyl]-1H-pyrazol-3-yl}carbonyl)pyrimidin-4-yl]amino}-2-hydroxycyclopentyl]methyl sulfamate] | < 10 nM | 97% | – | –
NS(=O)(=O)OC[C@H]1C[C@@H](Nc2ncncc2C(=O)c2ccn(CC3CCOC3)n2)C[C@@H]1O (mixture of isomers) [Compound I-332, [(1R,2S,4R)-2-hydroxy-4-{[5-({1-[(3R)-tetrahydrofuran-3-ylmethyl]-1H-pyrazol-3-yl}carbonyl)pyrimidin-4-yl]amino}cyclopentyl]methyl sulfamate and [(1R,2S,4R)-2-hydroxy-4-{[5-({1-[(3S)-tetrahydrofuran-3-ylmethyl]-1H-pyrazol-3-yl}carbonyl)pyrimidin-4-yl]amino}cyclopentyl]methyl sulfamate] | 100 to 1000 nM | 16% | – | –
NS(=O)(=O)OC[C@H]1C[C@@H](Nc2ncncc2C(=O)c2ccn(Cc3cccc(Cl)c3)n2)[C@H](O)[C@@H]1O [Compound I-40, {(1R,2R,3S,4R)-4-[(5-{[1-(3-Chlorobenzyl)-1H-pyrazol-3-yl]carbonyl}pyrimidin-4-yl)amino]-2,3-dihydroxycyclopentyl}methyl sulfamate] | < 10 nM | 97% | – | –
NS(=O)(=O)OC[C@H]1C[C@@H](Nc2ncncc2C(=O)c2ccn(Cc3ccc(F)c(Br)c3)n2)[C@H](O)[C@@H]1O [Compound I-290, {(1R,2R,3S,4R)-4-[(5-{[1-(3-bromo-4-fluorobenzyl)-1H-pyrazol-3-yl]carbonyl}pyrimidin-4-yl)amino]-2,3-dihydroxycyclopentyl}methyl sulfamate] | < 10 nM | 99% | – | –
NS(=O)(=O)OC[C@H]1C[C@@H](Nc2ncncc2C(=O)c2ccn(Cc3cc(F)cc(F)c3)n2)[C@H](O)[C@@H]1O [Compound I-269, {(1R,2R,3S,4R)-4-[(5-{[1-(3,5-difluorobenzyl)-1H-pyrazol-3-yl]carbonyl}pyrimidin-4-yl)amino]-2,3-dihydroxycyclopentyl}methyl sulfamate] | < 10 nM | 96% | – | –
